Data from patent publication US11306081B2, “Phenylacetamides as inhibitors of rock” (BRISTOL-MYERS SQUIBB COMPANY, priority 2017, dated 2022).

Target: ROCK2 (Homo sapiens (Human), UniProt O75116)
Test: ROCK assay (LABCHIP 3000 peptide phosphorylation assay)
Type: biochemical
Conditions: 5 μM ATP, 1.5 μM peptide substrate, dose-response
Summary of the method: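 Rho kinase variants in 20 mM HEPES pH 7.5, 20 mM MgCl2, 0.015% Brij-35, 4 mM DTT, 5 μM ATP, 1.5 μM FITC-AHA-AKRRRLSSLRA-OH peptide; DMSO <2%. EDTA-stopped; phosphorylated/non-phosphorylated peptide separated by microfluidic LabChip readout. Dose-response inhibition curve-fitted to give IC50.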

ROCK2, sequence (O75116 whole entry, species assumed): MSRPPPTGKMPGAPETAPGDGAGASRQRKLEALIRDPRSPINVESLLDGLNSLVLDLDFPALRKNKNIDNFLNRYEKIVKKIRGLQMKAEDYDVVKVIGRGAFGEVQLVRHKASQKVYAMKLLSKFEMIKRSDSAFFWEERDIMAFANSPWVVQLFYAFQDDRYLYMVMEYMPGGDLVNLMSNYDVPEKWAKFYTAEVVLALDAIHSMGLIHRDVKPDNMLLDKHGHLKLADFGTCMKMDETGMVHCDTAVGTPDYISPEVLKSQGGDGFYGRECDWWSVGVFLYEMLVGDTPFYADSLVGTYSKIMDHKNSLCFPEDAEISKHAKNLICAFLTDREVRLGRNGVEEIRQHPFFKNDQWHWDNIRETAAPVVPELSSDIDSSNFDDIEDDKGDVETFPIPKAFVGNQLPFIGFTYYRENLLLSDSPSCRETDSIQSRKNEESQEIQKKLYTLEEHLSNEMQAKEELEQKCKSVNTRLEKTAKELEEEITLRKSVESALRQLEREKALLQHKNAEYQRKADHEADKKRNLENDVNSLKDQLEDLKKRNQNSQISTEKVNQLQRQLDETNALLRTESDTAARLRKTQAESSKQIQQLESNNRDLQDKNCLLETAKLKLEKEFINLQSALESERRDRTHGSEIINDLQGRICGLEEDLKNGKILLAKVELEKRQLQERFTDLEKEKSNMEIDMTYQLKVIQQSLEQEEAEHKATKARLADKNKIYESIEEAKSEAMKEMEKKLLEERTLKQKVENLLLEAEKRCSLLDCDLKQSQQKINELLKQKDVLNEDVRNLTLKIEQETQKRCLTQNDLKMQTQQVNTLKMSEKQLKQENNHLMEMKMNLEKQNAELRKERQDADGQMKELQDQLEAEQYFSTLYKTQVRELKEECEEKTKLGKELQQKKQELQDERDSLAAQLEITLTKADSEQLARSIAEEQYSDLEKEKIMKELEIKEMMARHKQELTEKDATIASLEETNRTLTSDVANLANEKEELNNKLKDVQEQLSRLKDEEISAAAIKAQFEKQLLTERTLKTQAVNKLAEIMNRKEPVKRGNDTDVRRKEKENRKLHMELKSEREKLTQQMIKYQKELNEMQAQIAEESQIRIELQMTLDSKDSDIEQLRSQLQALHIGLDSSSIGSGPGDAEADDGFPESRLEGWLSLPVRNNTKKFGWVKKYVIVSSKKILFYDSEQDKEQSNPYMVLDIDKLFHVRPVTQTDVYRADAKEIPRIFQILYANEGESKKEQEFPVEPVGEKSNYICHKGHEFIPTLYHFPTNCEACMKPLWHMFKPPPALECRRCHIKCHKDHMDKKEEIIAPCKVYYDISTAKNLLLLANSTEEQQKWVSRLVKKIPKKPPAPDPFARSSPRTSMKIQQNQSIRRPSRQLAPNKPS

Structure (SMILES)	IC50
COC(=O)c1ccc2sc(NC(=O)Cc3ccc(Oc4ncccc4C(N)=O)cc3)nc2c1 [Example 065, methyl 2-(2-(4-((3-carbamoylpyridin-2-yl)oxy)phenyl)acet-amido)benzo[d]thi-azole-5-carboxylate]	109 nM
CC(C)(O)COc1ccc2c(c1)CCc1sc(NC(=O)Cc3ccc(Oc4ncccc4C(N)=O)cc3)nc1-2 [Example 108, 2-(4-(2-((7-(2-hydroxy-2-methylpropoxy)-4,5-dihydronaphtho[1,2-d]thiazol-2-yl)amino)-2-oxoethyl)phenoxy)nicotinamide]	40 nM
NC(=O)c1cccnc1Oc1ccc(CC(=O)N2CCc3cc(OCc4ccccc4)ccc32)cc1 [Example 059, 2-(4-(2-(5-(benzyloxy)indolin-1-yl)-2-oxoethyl)phenoxy) nicotinamide]	98 nM
NC(=O)c1cccnc1Oc1ccc(CC(=O)Nc2nc(-c3cccc(F)c3)cs2)cc1 [Example 064, 2-(4-(2-((4-(3-fluorophenyl)thia-zol-2-yl)amino)-2-oxoethyl)phenoxy) nicotinamide]	423 nM
NC(=O)c1cccnc1Oc1ccc(CC(=O)Nc2nc3cc(C(F)(F)F)ccn3n2)cc1F [Example 132, 2-(2-fluoro-4-(2-oxo-2-((7-(trifluoro-methyl)-[1,2,4]-triazolo[1,5-a]-pyridin-2-yl)amino)-ethyl)phenoxy)-nicotinamide]	129 nM
Cn1cc(-c2ccc3nc(NC(=O)Cc4ccc(Oc5ncccc5C(N)=O)c(Cl)c4)cn3c2)cn1 [Example 037, 2-(2-chloro-4-(2-((6-(1-methyl-1H-pyrazol-4-yl)imidazo[1,2-a]pyridin-2-yl)amino)-2-oxoethyl)phenoxy)nico-tinamide]	34 nM
COc1ccc(-c2csc(NC(=O)Cc3ccc(Oc4ncccc4C(N)=O)cc3)n2)cc1OC [Example 051, 2-(4-(2-((4-(3,4-dimethoxyphenyl)thiazol-2-yl)amino)-2-oxoethyl)phenoxy) nicotinamide]	145 nM

More lines, in order of falling IC50, values ahead:

IC50	Structure (SMILES)
34 nM	NC(=O)c1cccnc1Oc1ccc(CC(=O)Nc2nc3c(C(F)(F)F)cccn3n2)cc1F [Example 141, 2-(2-fluoro-4-(2-oxo-2-((8-(trifluoromethyl)-[1,2,4]triazolo[1,5-a]pyridin-2-yl)amino)ethyl)phenoxy)nicotinamide]
29 nM	CC(C)(O)COc1ccc2sc(NC(=O)Cc3ccc(Oc4ncccc4C(N)=O)cc3)nc2c1 [Example 107, 2-(4-(2-((5-(2-hydroxy-2-methylpropoxy)benzo[d]thiazol-2-yl)amino)-2-oxoethyl)phenoxy)nicotinamide]
24 nM	Cc1sc(NC(=O)Cc2ccc(Oc3ncccc3C(N)=O)c(F)c2)nc1-c1ccncc1 [Example 044, 2-(2-fluoro-4-(2-((5-methyl-4-(pyridin-4-yl)thiazol-2-yl)amino)-2-oxoethyl)phenoxy)nico-tinamide]
22 nM	Cc1sc(NC(=O)Cc2ccc(Oc3ncccc3C(N)=O)c(F)c2)nc1C1CC1 [Example 046, 2-(4-(2-((4-cyclopropyl-5-methylthiazol-2-yl)amino)-2-oxoethyl)-2-fluorophenoxy)nicotin-amide]
21 nM	Cc1sc(NC(=O)Cc2ccc(Oc3ncccc3C(N)=O)c(F)c2)nc1-c1cccc(F)n1 [Example 013, 2-(2-fluoro-4-(2-((4-(6-fluoropyridin-2-yl)-5-methylthiazol-2-yl)amino)-2-oxoethyl)phenoxy)nicotinamide]
21 nM	COc1ccc2c(c1)CCc1sc(NC(=O)Cc3ccc(Oc4ncccc4C(N)=O)cc3)nc1-2 [Example 053, 2-(4-(2-((7-methoxy-4,5-dihydronaphtho[1,2-d]thiazol-2-yl)amino)-2-oxoethyl)phenoxy) nicotinamide]
15 nM	COc1cccn2nc(NC(=O)Cc3ccc(Oc4ncccc4C(N)=O)c(F)c3)nc12 [Example 094, 2-(2-fluoro-4-(2-((8-methoxy-[1,2,4]triazolo[1,5-a]pyridin-2-yl)amino)-2-oxoethyl)phenoxy) nicotinamide]
